Patent US10179799B2, “Method for producing P1,P4-di(uridine 5′-) tetraphosphate” (YAMASA CORPORATION, priority 2012, dated 2019)
Like-named read-outs stand apart in the source and are kept apart here.

Assay: Determination of stability of UTP and related compound (solution left to stand, HPLC, decomposition rate)
Type: physicochemical
Procedure: In order to evaluate stability of UTP free, stability of aqueous solutions of UTP free and UTP sodium salt (UTP-Na) and a dimethylacetamide solution of UTP-tributylamine salt (UTP-TBA) was examined. Also, stability of aqueous solutions of UDP free and UDP-Na as comparison control was also determined. The solution of each substance was left to stand for a certain period at −20° C., 25° C. or 50° C., and the concentration of each substance was determined by HPLC to calculate a decomposition rate. Here, the decomposition rate was defined as the following [equation 1]. Decomposition rate (%) of each substance={100−(HPLC % of each substance at determination/HPLC % of each substance at test start)×100} [equation 1]

[1] = aqueous solution left to stand at 25° C., 8 h, 16 mM UTP free, 10 mM UDP free
[2] = aqueous solution left to stand at 25° C., 24 h, 16 mM UTP free, 10 mM UDP free
[3] = 50° C., 8 h, 35 mM UTP-TBA in dimethylacetamide solution, 40 mM UTP-Na and 40 mM UDP-Na in aqueous solution
[4] = 50° C., 24 h, 35 mM UTP-TBA in dimethylacetamide solution, 40 mM UTP-Na and 40 mM UDP-Na in aqueous solution

Structure (SMILES)	Decomposition rate [1] [%]	Decomposition rate [2] [%]	Decomposition rate [3] [%]	Decomposition rate [4] [%]	Stability during storage of the solution	Decomposition rate (aqueous solution left to stand at −20° C., 18 h, 16 mM UTP free) [%]	Stability during storage of the solution (compared to UTP sodium salt, UDP free and UDP sodium salt)
O=c1ccn([C@@H]2O[C@H](COP(=O)(O)OP(=O)(O)O)[C@@H](O)[C@H]2O)c(=O)[nH]1 [UDP free, uridine 5′-diphosphoric acid]	0	0					
O=c1ccn([C@@H]2O[C@H](COP(=O)([O-])OP(=O)([O-])O)[C@@H](O)[C@H]2O)c(=O)[nH]1.[Na+].[Na+] [UDP-Na, UDP sodium salt]			2	5			
O=c1ccn([C@@H]2O[C@H](COP(=O)(O)OP(=O)(O)OP(=O)(O)O)[C@@H](O)[C@H]2O)c(=O)[nH]1 [UTP free, uridine 5′-triphosphoric acid]	4	12			clearly low stability	4	
O=c1ccn([C@@H]2O[C@H](COP(=O)([O-])OP(=O)([O-])OP(=O)([O-])O)[C@@H](O)[C@H]2O)c(=O)[nH]1.[Na+].[Na+].[Na+] [UTP-Na, UTP sodium salt]			2	6			
CCCCN(CCCC)CCCC.O=c1ccn([C@@H]2O[C@H](COP(=O)(O)OP(=O)(O)OP(=O)(O)O)[C@@H](O)[C@H]2O)c(=O)[nH]1 [UTP-TBA, UTP-tributylamine salt]			7	18			clearly low stability
